# Tested on: Beet Armyworm (Spodoptera exigua)
# Assay: Bioassay on Beet Armyworm (BAW), 128-well diet tray assay
# Assay type: in vivo
# Conditions: percent mortality of second instar larvae, 50 μg/cm^2 on artificial diet, five to seven days, 25° C.; Table 3
# Description: Certain molecules disclosed in this document were tested against BAW and CEW and CL using procedures described in the following examples. In the reporting of the results, the “BAW & CEW & CL Rating Table” was used (See Table Section).
# Bioassays on BAW (Spodoptera exigua)
# Bioassays on BAW were conducted using a 128-well diet tray assay. one to five second instar BAW larvae were placed in each well (3 mL) of the diet tray that had been previously filled with 1 mL of artificial diet to which 50 μg/cm^2 of the test compound (dissolved in 50 μL of 90:10 acetone-water mixture) had been applied (to each of eight wells) and then allowed to dry. Trays were covered with a clear self-adhesive cover, and held at 25° C., 14:10 light-dark for five to seven days. Percent mortality was recorded for the larvae in each well; activity in the eight wells was then averaged. The results are indicated in the table entitled “Table 3: Assay Results” (See Table Section).
row,SMILES,BAW Rating
1,Cc1cc(/C=C/C(c2cc(Cl)c(Cl)c(Cl)c2)C(F)(F)F)ccc1-n1cncn1 (stereo not drawn) [DC63],A (50-100)
2,Cc1cc(/C=C/C(c2cc(Cl)cc(Cl)c2)C(F)(F)F)ccc1C(=O)N(C)Cc1ccc(Cl)nc1 (stereo not drawn) [AC117],A (50-100)
3,N#Cc1cc(/C=C/C(c2cc(Cl)cc(Cl)c2)C(F)(F)F)ccc1-n1cnc(N)n1 (stereo not drawn) [DC38],A (50-100)
4,FC(F)(F)C(/C=C/c1ccc(-n2cncn2)cc1)c1ccccc1 (stereo not drawn) [DC3],B (More than 0-Less than 50)
5,FC(F)(F)c1cc(/C=C/C(c2cc(Cl)cc(Cl)c2)C(F)(F)F)ccc1-n1cncn1 (stereo not drawn) [DC51],A (50-100)
6,Cc1cc(/C=C/C(c2cc(Cl)cc(Cl)c2)C(F)(F)F)ccc1C(=O)NCC(=O)N(C)CC(F)(F)F (stereo not drawn) [AC51],A (50-100)
7,"O=C(C1CC1)N(Cc1ccccn1)Cc1ccc(/C=C/C(c2cc(Cl)c(Cl)c(Cl)c2)C(F)(F)F)cc1C(F)(F)F (stereo not drawn) [CC29, (E)-N-(Pyridin-2-ylmethyl)-N-(4-(4,4,4-trifluoro-3-(3,4,5-trichlorophenyl)but-1-enyl)-2-(trifluoromethyl)benzyl)cyclopropanecarboxamide]",A (50-100)
8,Cc1cc(/C=C/C(c2cc(Cl)cc(Cl)c2)C(F)(F)F)ccc1C(=O)NCc1ccccc1 (stereo not drawn) [AC11],A (50-100)
9,"Cc1cc(/C=C/C(c2cc(Cl)cc(Cl)c2)C(F)(F)F)ccc1C(=O)NCc1nnc(C2CC2)o1 (stereo not drawn) [AC89, (E)-N-((5-Cyclopropyl-1,3,4-oxadiazol-2-yl)methyl)-4-(3-(3,5-dichlorophenyl)-4,4,4-trifluorobut-1-en-1-yl)-2-methylbenzamide]",A (50-100)
10,"O=C(CNC(=S)c1ccc(/C=C/C(c2cc(Cl)c(Cl)c(Cl)c2)C(F)(F)F)cc1Br)NCC(F)(F)F (stereo not drawn) [AC91, (E)-2-(2-Bromo-4-(4,4,4-trifluoro-3-(3,4,5-trichlorophenyl)but-1-en-1-yl)phenylthioamido)-N-(2,2,2-trifluoroethyl)acetamide]",A (50-100)
11,Cc1cc(/C=C/C(c2cc(Cl)c(Cl)c(Cl)c2)C(F)(F)F)ccc1C(=O)NCc1cnc(Cl)s1 (stereo not drawn) [AC26],A (50-100)
12,Cc1cc(/C=C/C(c2cc(Cl)cc(Cl)c2)C(F)(F)F)ccc1C(=O)NC1CSC1 (stereo not drawn) [AC10],A (50-100)
13,COc1c(Cl)cc(C(/C=C/c2ccc(-n3cncn3)cc2)C(F)(F)F)cc1Cl (stereo not drawn) [DC20],A (50-100)
14,Fc1cc(F)cc(C(/C=C/c2ccc(-n3cncn3)cc2)C(F)(F)F)c1 (stereo not drawn) [DC8],A (50-100)
15,O=C(NC1CSC1)c1ccc(/C=C/C(c2cc(Cl)cc(Cl)c2)C(F)(F)F)cc1F (stereo not drawn) [AC61],A (50-100)
16,O=C(NCc1ccc(C(F)(F)F)nc1)c1ccc(/C=C/C(c2cc(Cl)c(Cl)c(Cl)c2)C(F)(F)F)cc1Br (stereo not drawn) [AC75],A (50-100)
17,Cc1cc(/C=C/C(c2cc(Cl)c(Cl)c(Cl)c2)C(F)(F)F)ccc1C(=O)NCc1ccc(Cl)nc1 (stereo not drawn) [AC22],A (50-100)
18,N#Cc1cc(/C=C/C(c2cc(Cl)cc(C(F)(F)F)c2)C(F)(F)F)ccc1-n1cncn1 (stereo not drawn) [DC33],A (50-100)
19,O=C(NCc1ccc(/C=C/C(c2cc(Cl)c(Cl)c(Cl)c2)C(F)(F)F)cc1C(F)(F)F)c1cccnc1 (stereo not drawn) [CC23],A (50-100)

row,SMILES,BAW Rating
1,O=C(CC(F)(F)F)NCc1ccc(/C=C/C(c2cc(Cl)c(Cl)c(Cl)c2)C(F)(F)F)cc1F (stereo not drawn) [CC27],A (50-100)
2,O=C(NCc1ccc(/C=C/C(c2cc(Cl)c(Cl)c(Cl)c2)C(F)(F)F)cc1Br)C1CC1 (stereo not drawn) [CC26],A (50-100)
3,N#Cc1cc(/C=C\C(c2cc(Cl)c(F)c(Cl)c2)C(F)(F)F)ccc1-n1cncn1 (stereo not drawn) [DC46],A (50-100)
4,O=C(CNC(=O)c1ccc(/C=C/C(c2cc(Cl)c(F)c(Cl)c2)C(F)(F)F)cc1[N+](=O)[O-])NCC(F)(F)F (stereo not drawn) [AC98],A (50-100)
5,O=C(Cc1ccc(Cl)nc1)NC1CCc2cc(/C=C/C(c3cc(Cl)c(F)c(Cl)c3)C(F)(F)F)ccc21 (stereo not drawn) [BC9],A (50-100)
6,Cc1cc(C)cc(C(/C=C/c2ccc(-n3cncn3)cc2)C(F)(F)F)c1 (stereo not drawn) [DC11],A (50-100)
7,Cc1cc(/C=C/C(c2cc(Cl)c(F)c(Cl)c2)C(F)(F)F)ccc1C(=O)NCc1ccc(Cl)nc1 (stereo not drawn) [AC38],A (50-100)
8,Cc1cc(/C=C/C(c2cc(Cl)c(Cl)c(Cl)c2)C(F)(F)F)cc(C#N)c1-n1cncn1 (stereo not drawn) [DC45],A (50-100)
9,O=C(NCc1ccc(/C=C/C(c2cc(Cl)c(Cl)c(Cl)c2)C(F)(F)F)cc1F)C1CC1 (stereo not drawn) [CC28],A (50-100)
10,Cc1cc(/C=C/C(c2cc(Cl)cc(Cl)c2)C(F)(F)F)ccc1C(=O)NCC(=O)NC1CSC1 (stereo not drawn) [AC41],A (50-100)
11,CSCCC(=O)NCc1ccc(/C=C/C(c2cc(Cl)c(Cl)c(Cl)c2)C(F)(F)F)cc1Cl (stereo not drawn) [CC19],A (50-100)
12,"CC(=O)N1CCC(NC(=O)c2ccc(/C=C/C(c3cc(Cl)c(Cl)c(Cl)c3)C(F)(F)F)cc2Br)CC1 (stereo not drawn) [AC103, (E)-N-(1-Acetylpiperidin-4-yl)-2-bromo-4-(4,4,4-trifluoro-3-(3,4,5-trichlorophenyl)but-1-en-1-yl)benzamide]",A (50-100)
13,"Cc1cc(/C=C/C(c2cc(Cl)cc(Cl)c2)C(F)(F)F)ccc1C(=S)NCc1ccc(Cl)nc1 (stereo not drawn) [AC115, (E)-N-((6-Chloropyridin-3-yl)methyl)-4-(3-(3,5-dichlorophenyl)-4,4,4-trifluorobut-1-en-1-yl)-2-methylbenzothioamide]",A (50-100)
14,O=C(NCc1ccc(Cl)nc1)c1ccc(/C=C/C(c2cc(Cl)c(F)c(Cl)c2)C(F)(F)F)cc1F (stereo not drawn) [AC65],A (50-100)
15,CCc1cc(/C=C/C(c2cc(Cl)c(F)c(Cl)c2)C(F)(F)F)ccc1C(=O)NCc1ccc(Cl)nc1 (stereo not drawn) [AC72],A (50-100)
16,Cc1cc(/C=C/C(c2cc(Cl)c(F)c(Cl)c2)C(F)(F)F)ccc1C(=O)NCc1cc(Cl)ccn1 (stereo not drawn) [AC77],A (50-100)
17,O=C(NC1C[S+]([O-])C1)c1ccc(/C=C/C(c2cc(Cl)c(F)c(Cl)c2)C(F)(F)F)cc1F (stereo not drawn) [AC87],A (50-100)
18,"O=C(CNC(=O)c1ccc(/C=C/C(c2cc(Cl)c(Cl)c(Cl)c2)C(F)(F)F)cc1Cl)NCC(F)(F)F (stereo not drawn) [AC64, (E)-2-Chloro-N-(2-oxo-2-((2,2,2-trifluoroethyl)amino)ethyl)-4-(4,4,4-trifluoro-3-(3,4,5-trichlorophenyl)but-1-en-1-yl)benzamide]",A (50-100)
19,N#Cc1cc(/C=C/C(c2cc(Cl)cc(Cl)c2)C(F)(F)F)ccc1-n1cnc([N+](=O)[O-])n1 (stereo not drawn) [DC37],A (50-100)

row,SMILES,BAW Rating
1,CCC(=O)NCc1ccc(/C=C/C(c2cc(Cl)cc(Cl)c2)C(F)(F)F)cc1 (stereo not drawn) [CC4],A (50-100)
2,O=C(NC1CSC1)c1ccc(/C=C/C(c2cc(Cl)c(F)c(Cl)c2)C(F)(F)F)cc1F (stereo not drawn) [AC67],A (50-100)
3,O=C(NCc1ccc(Cl)nc1)c1ccc(/C=C/C(c2cc(Cl)c(Cl)c(Cl)c2)C(F)(F)F)cc1Br (stereo not drawn) [AC31],A (50-100)
4,FC(F)(F)C(/C=C/c1ccc(-n2cncn2)c(Cl)c1)c1cc(Cl)c(Cl)c(Cl)c1 (stereo not drawn) [DC49],A (50-100)
5,"FC(F)(F)C(/C=C/c1ccc(-n2cncn2)cc1)c1cc(Cl)cc(Cl)c1 (stereo not drawn) [DC1, (E)-1-(4-(3-(3,5-Dichlorophenyl)-4,4,4-trifluorobut-1-en-1-yl)phenyl)-1H-1,2,4-triazole]",A (50-100)
6,O=C(NC1CSC1)c1ccc(/C=C/C(c2cc(Cl)c(Cl)c(Cl)c2)C(F)(F)F)cc1C(F)(F)F (stereo not drawn) [AC34],A (50-100)
7,O=C(NC1CCc2cc(/C=C/C(c3cc(Cl)c(Cl)c(Cl)c3)C(F)(F)F)ccc21)C1CC1 (stereo not drawn) [BC6],A (50-100)
8,Cc1cc(/C=C/C(c2cc(Cl)cc(Cl)c2)C(F)(F)F)ccc1C(=O)NCc1ccccc1F (stereo not drawn) [AC9],A (50-100)
9,"CNc1cc(/C=C/C(c2cc(Cl)cc(Cl)c2)C(F)(F)F)ccc1-n1cncn1 (stereo not drawn) [DC57, (E)-5-(3-(3,5-Dichlorophenyl)-4,4,4-trifluorobut-1-en-1-yl)-N-methyl-2-(1H-1,2,4-triazol-1-yl)aniline]",A (50-100)
10,Cc1cc(/C=C/C(c2cc(Cl)cc(Cl)c2)C(F)(F)F)ccc1C(=O)NCC(=O)NC1CC1 (stereo not drawn) [AC40],A (50-100)
11,O=C(NCc1ccc(Cl)nc1)c1ccc(/C=C/C(c2cc(Cl)cc(Cl)c2)C(F)(F)F)cc1F (stereo not drawn) [AC49],A (50-100)
12,"O=C(CC(F)(F)F)NCc1ncc(/C=C/C(c2cc(Cl)c(Cl)c(Cl)c2)C(F)(F)F)cc1Cl (stereo not drawn) [CC44, (E)-N-((3-Chloro-5-(4,4,4-trifluoro-3-(3,4,5-trichlorophenyl)-but-1-en-1-yl)pyridin-2-yl)methyl)-3,3,3-trifluoropropanamide]",A (50-100)
13,FC(F)(F)C(/C=C/c1ccc(-n2cncn2)cc1Cl)c1cc(Cl)cc(Cl)c1 (stereo not drawn) [DC67],A (50-100)
14,CONC(=O)CNC(=O)c1ccc(/C=C/C(c2cc(Cl)c(Cl)c(Cl)c2)C(F)(F)F)cc1Br (stereo not drawn) [AC110],A (50-100)
15,"O=C(NOc1ccc(/C=C/C(c2cc(Cl)c(Cl)c(Cl)c2)C(F)(F)F)cc1)C1CC1 (stereo not drawn) [CC52, (E)-N-(4-(4,4,4-Trifluoro-3-(3,4,5-trichlorophenyl)but-1-en-1-yl)phenoxy)cyclopropanecarboxamide]",A (50-100)
16,Cc1cc(/C=C\C(c2cc(Cl)cc(Cl)c2)C(F)(F)F)ccc1C(=O)NCC(=O)NC1CC1 (stereo not drawn) [AC93],A (50-100)
17,O=C(NCc1ccc(Cl)nc1)c1ccc(/C=C/C(c2cc(Cl)c(F)c(Cl)c2)C(F)(F)F)cc1Br (stereo not drawn) [AC63],A (50-100)
18,FC(F)(F)c1cc(C(/C=C/c2ccc(-n3cncn3)cc2)C(F)(F)F)cc(C(F)(F)F)c1 (stereo not drawn) [DC16],A (50-100)
19,O=C(CC(F)(F)F)NNc1ccc(/C=C/C(c2cc(Cl)c(Cl)c(Cl)c2)C(F)(F)F)cc1 (stereo not drawn) [CC51],A (50-100)

# Source: patent publication US9510592B2, “Pesticidal compositions and processes related thereto” (Dow AgroSciences LLC, priority 2012, dated 2016)
